{
  "source": "patent US9474790B2",
  "about": "“Stable, protracted GLP-1/glucagon receptor co-agonists for medical use” (Novo Nordisk A/S, priority 2013, dated 2016)",
  "key": {"[1]": {"assay": "Chemical stability assessment by RP-UPLC", "assay_type": "physicochemical", "conditions": "333 μM, 8 mM phosphate buffer pH 7.3, 37° C. vs 5° C.", "summary_of_the_method": "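Purity loss = (purity after 14 days at 5° C. minus that at 37° C.) relative to the 5° C. value, purity being main-peak area % by RP-UPLC with UV at 215 nm. Samples were 333 μM in 8 mM phosphate, pH 7.3; gradient adjusted for outlying retention times.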"}, "[2]": {"assay": "Thioflavin T (ThT) fibrillation assay for physical stability", "assay_type": "physicochemical", "conditions": "250 μM in 10 mM HEPES buffer, pH 7.5, 37° C., shaking 960 rpm", "summary_of_the_method": "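Fibrillation was followed by ThT (1 μM) fluorescence every 20 min, 444/485 nm, for 250 μM peptide in 10 mM HEPES pH 7.5 shaken at 960 rpm, 37° C. Lag time (t0−2τ) and apparent rate constant (1/τ) come from a sigmoidal fit. Recovery is % of initial concentration remaining soluble after centrifugation and filtration (RP-HPLC).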"}},
  "note": "Numbered stars: 1 amine (or outer) side, 2 acyl side, 3 side chain; on linkers, the order of the positions; unused ones are H or OH. Square brackets hold non-standard residues; d marks the D form. Side chains are listed from the residue outwards. Peptide text beside a SMILES is read from it. * marks the point of attachment. C18 diacid = O=C(O)CCCCCCCCCCCCCCCCC(=O)*; γGlu = O=C(O)[C@H](CCC(=O)[*:2])N[*:1]; AEEA = NCCOCCOCC(=O)O; Aib = CC(C)(N)C(=O)O",
  "data": [
    {"smiles": "CC(C)C[C@H](NC(=O)[C@H](Cc1ccc(O)cc1)NC(=O)[C@H](CCCCN)NC(=O)[C@H](CO)NC(=O)[C@H](CC(C)C)NC(=O)[C@H](CC(=O)O)NC(=O)[C@H](CO)NC(=O)[C@@H](NC(=O)[C@H](Cc1ccccc1)NC(=O)[C@@H](NC(=O)CNC(=O)[C@H](CCC(N)=O)NC(=O)C(C)(C)NC(=O)[C@@H](N)Cc1c[nH]cn1)[C@@H](C)O)[C@@H](C)O)C(=O)N[C@@H](CC(=O)O)C(=O)N[C@@H](CO)C(=O)N[C@@H](CCCNC(=N)N)C(=O)N[C@@H](CCCNC(=N)N)C(=O)N[C@@H](C)C(=O)N[C@@H](CCCNC(=N)N)C(=O)N[C@@H](CCC(=O)O)C(=O)N[C@@H](Cc1ccccc1)C(=O)N[C@H](C(=O)N[C@@H](CCC(N)=O)C(=O)N[C@@H](Cc1c[nH]c2ccccc12)C(=O)N[C@@H](CC(C)C)C(=O)N[C@@H](CC(C)C)C(=O)N[C@@H](CCCCNC(=O)CC[C@H](NC(=O)CC[C@H](NC(=O)COCCOCCNC(=O)COCCOCCNC(=O)CC[C@H](NC(=O)CCCCCCCCCCCCCCCCC(=O)O)C(=O)O)C(=O)O)C(=O)O)C(=O)N[C@H](C(N)=O)[C@@H](C)O)C(C)C", "note": "[Example 56, N^ε28-[(4S)-4-carboxy-4-[[(4S)-4-carboxy-4-[[2-[2-[2-[[2-[2-[2-[[(4S)-4-carboxy-4-(17-carboxyheptadecanoylamino)butanoyl]amino]ethoxy]ethoxy]acetyl]amino]ethoxy]ethoxy]acetyl]amino]butanoyl]amino]butanoyl]-[Aib2,Leu10,Arg20,Glu21,Leu27,Lys28]-Glucagon amide] (H-H[Aib]QGTFTSDLSKYLDSRRAREFVQWLLK([γGlu-γGlu-AEEA-AEEA-γGlu-C18 diacid])T-NH2)", "values": [
      {"measurement": "Purity loss; 14 days at 37° C.", "setting": "[1]", "result": 4, "unit": "%"},
      {"measurement": "THT assay Lag time (Ex. 76)", "setting": "[2]", "result": 45, "unit": "h"}
    ]},
    {"smiles": "CC(C)C[C@H](NC(=O)[C@H](Cc1ccc(O)cc1)NC(=O)[C@H](CCCCN)NC(=O)[C@H](CO)NC(=O)[C@H](CC(C)C)NC(=O)[C@H](CC(=O)O)NC(=O)[C@H](CO)NC(=O)[C@@H](NC(=O)[C@H](Cc1ccccc1)NC(=O)[C@@H](NC(=O)CNC(=O)[C@H](CCC(N)=O)NC(=O)C(C)(C)NC(=O)[C@@H](N)Cc1c[nH]cn1)[C@@H](C)O)[C@@H](C)O)C(=O)N[C@@H](CCC(=O)O)C(=O)N[C@@H](CO)C(=O)N[C@@H](CCCNC(=N)N)C(=O)N[C@@H](CCCNC(=N)N)C(=O)N[C@@H](C)C(=O)N[C@@H](CCCNC(=N)N)C(=O)N[C@@H](CCC(=O)O)C(=O)N[C@@H](Cc1ccccc1)C(=O)N[C@H](C(=O)N[C@@H](CCC(N)=O)C(=O)N[C@@H](Cc1c[nH]c2ccccc12)C(=O)N[C@@H](CC(C)C)C(=O)N[C@@H](CC(C)C)C(=O)N[C@@H](CCCCNC(=O)CC[C@H](NC(=O)CC[C@H](NC(=O)COCCOCCNC(=O)COCCOCCNC(=O)CC[C@H](NC(=O)CC[C@H](NC(=O)CCCCCCCCCCCCCCCCC(=O)O)C(=O)O)C(=O)O)C(=O)O)C(=O)O)C(=O)N[C@H](C(N)=O)[C@@H](C)O)C(C)C", "note": "[Example 60, N^ε28-[(4S)-4-carboxy-4-[[(4S)-4-carboxy-4-[[2-[2-[2-[[2-[2-[2-[[(4S)-4-carboxy-4-[[(4S)-4-carboxy-4-(17-carboxyheptadecanoylamino)butanoyl]amino]butanoyl]amino]ethoxy]ethoxy]acetyl]amino]ethoxy]ethoxy]acetyl]amino]butanoyl]amino]butanoyl]-[Aib2,Leu10,Glu15,Arg20,Glu21,Leu27,Lys28]-Glucagon amide] (H-H[Aib]QGTFTSDLSKYLESRRAREFVQWLLK([γGlu-γGlu-AEEA-AEEA-γGlu-γGlu-C18 diacid])T-NH2; N-terminus assumed)", "values": [
      {"measurement": "Purity loss; 14 days at 37° C.", "setting": "[1]", "result": 4, "unit": "%"},
      {"measurement": "THT assay Lag time (Ex. 76)", "setting": "[2]", "result": 45, "unit": "h"}
    ]}
  ]
}
